Reference: PubChem BioAssay AID652241 (Broad Institute, 2013)
Records with an inconclusive call do not appear. Active and inactive are the calls of the source.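 Rule for the calls: active = fitted curve reaches activity 50 in the expected rising direction at or below the top valid tested dose; inconclusive = no clear call, values can overlap the other calls; inactive = activity in the wrong direction, and the rest.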

The compounds below were run against Virion infectivity factor (Human immunodeficiency virus type 1 group M subtype B (isolate BH10)) + Virion infectivity factor (Human immunodeficiency virus type 1 group M subtype B (isolate BRU/LAI)) + Virion infectivity factor (Human immunodeficiency virus type 1 group M subtype B (isolate PCV12)) + Virion infectivity factor (Human immunodeficiency virus type 1 group M subtype B (isolate HXB2)) (UniProt P69720+P69721+P69722+P69723) (assay: dose-dependent disruption of HIV Vif self-association – imaging, HEK293T, cherry-picks, dose response (AID 652241;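 note: imaged cell signal that rises when Vif self-association is disrupted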)). Settings: HEK293T Vif multimerization imaging, 24 h.
Virion infectivity factor (Human immunodeficiency virus type 1 group M subtype B (isolate BH10)) + Virion infectivity factor (Human immunodeficiency virus type 1 group M subtype B (isolate BRU/LAI)) + Virion infectivity factor (Human immunodeficiency virus type 1 group M subtype B (isolate PCV12)) + Virion infectivity factor (Human immunodeficiency virus type 1 group M subtype B (isolate HXB2)), sequence (P69720 whole entry, looked up): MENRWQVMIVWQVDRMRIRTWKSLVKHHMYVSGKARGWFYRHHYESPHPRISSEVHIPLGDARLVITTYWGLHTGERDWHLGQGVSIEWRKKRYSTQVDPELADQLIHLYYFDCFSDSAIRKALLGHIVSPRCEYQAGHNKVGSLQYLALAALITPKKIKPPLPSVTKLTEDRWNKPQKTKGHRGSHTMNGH
Virion infectivity factor (Human immunodeficiency virus type 1 group M subtype B (isolate BH10)) + Virion infectivity factor (Human immunodeficiency virus type 1 group M subtype B (isolate BRU/LAI)) + Virion infectivity factor (Human immunodeficiency virus type 1 group M subtype B (isolate PCV12)) + Virion infectivity factor (Human immunodeficiency virus type 1 group M subtype B (isolate HXB2)), sequence (P69721 whole entry, looked up): as the sequence (P69720 whole entry, looked up) above
Virion infectivity factor (Human immunodeficiency virus type 1 group M subtype B (isolate BH10)) + Virion infectivity factor (Human immunodeficiency virus type 1 group M subtype B (isolate BRU/LAI)) + Virion infectivity factor (Human immunodeficiency virus type 1 group M subtype B (isolate PCV12)) + Virion infectivity factor (Human immunodeficiency virus type 1 group M subtype B (isolate HXB2)), sequence (P69722 whole entry, looked up): as the sequence (P69720 whole entry, looked up) above
Virion infectivity factor (Human immunodeficiency virus type 1 group M subtype B (isolate BH10)) + Virion infectivity factor (Human immunodeficiency virus type 1 group M subtype B (isolate BRU/LAI)) + Virion infectivity factor (Human immunodeficiency virus type 1 group M subtype B (isolate PCV12)) + Virion infectivity factor (Human immunodeficiency virus type 1 group M subtype B (isolate HXB2)), sequence (P69723 whole entry, looked up): as the sequence (P69720 whole entry, looked up) above

Structure (SMILES) | AC50
C=CCn1c(O)c(C2=c3ccccc3=NC2=O)s/c1=N/c1nccs1 | > 19.5 µM (inactive)
CCN(CC)c1ccc2cc(C(N)=O)c(=O)oc2c1 | > 19.5 µM (inactive)
Nc1c(C(=O)Nc2nc3ccccc3s2)sc2nc(-c3cccs3)ccc12 | 7.57 µM
CCCSc1ccc2nc(NC(=O)OC)[nH]c2c1 | 15.4 µM
COc1ccc(-c2cc(-c3nc4ccccn4c3NCc3ccccc3)ccc2OC)cc1 | 3.66 µM
COc1ccc(/C=C/C(=O)c2cc(F)ccc2OC(=O)c2ccccc2OC)cc1OC | 1.33 µM
Cc1nnc2ccc(-c3cccc(NS(=O)(=O)c4ccccc4Cl)c3)nn12 | 14.1 µM
COc1ccc2cc(-c3cc(C(=O)OCC(=O)NC4CCS(=O)(=O)C4)c4ccccc4n3)ccc2c1 (stereo not drawn) | 14.7 µM
COc1ccc(-c2cc(C(F)(F)F)nc(S(C)(=O)=O)n2)cc1OC | 8.03 µM
C=CCNc1ncnc2c1ncn2C1OC(CO)C(O)C1O (stereo not drawn) | 5.47 µM
CCOc1c(C(N)=O)c(-c2ccccc2)c2c(=O)[nH]c3ccccc3n12 | > 19.5 µM (inactive)
COc1ccc(-c2cc(N)n(S(=O)(=O)c3c(F)c(F)c(F)c(F)c3F)n2)cc1OC | 13.4 µM
CCOC(=O)c1cc(-c2ccccc2)sc1NC(=O)COC(=O)c1cccc(S(N)(=O)=O)c1 | 16.1 µM
c1ccc(-c2cn3nc(-c4ccccc4)c(-c4ccccc4)nc3n2)cc1 | 19.2 µM
COc1cc(-c2cc(=O)c3c(O)c(OC)c(OC)c(O)c3o2)ccc1O | > 19.5 µM (inactive)
Cc1cccc(Nc2nc(-c3ccc(O)c(O)c3)cs2)n1 | > 19.5 µM (inactive)
COc1ccc(-c2cc(C(=O)Nc3cnn(Cc4ccccc4C)c3)no2)cc1OC | 16.3 µM
O=C(CCCCCn1c(=S)[nH]c2ccc(N3CCOCC3)cc2c1=O)NCc1ccccc1Cl | 6.23 µM

Same assay, conditions: HEK293T Vif multimerization imaging, 24 h; at 2.1 µM (top of the series)

Structure (SMILES) | activity, higher = inhibition
OCC1OC(n2cnc3c(NCc4ccco4)ncnc32)C(O)C1O (stereo not drawn) | inactive

Same assay, conditions: HEK293T Vif multimerization imaging, 24 h; at 6.8 µM (top of the series)

Structure (SMILES) | activity, higher = inhibition
COc1ccc(OC)c(/C=C/c2nc3ccccc3[nH]c2=O)c1 | inactive
N#Cc1cc2c(=O)n3ccccc3nc2n(-c2ccccc2Cl)c1=O | inactive

Same assay, conditions: HEK293T Vif multimerization imaging, 24 h; at 19.5 µM (top of the series)

Structure (SMILES) | activity, higher = inhibition
CSc1ccc(CN(C)CC(=O)NCCc2ccccc2)cc1 | inactive
CCOC(=O)Cc1csc(NC(=O)CSc2nnnn2-c2ccc(CC)cc2)n1 | inactive
CC(C)CC(=O)Nc1ccc(-c2nnn(CC(=O)NCc3ccco3)n2)cc1 | inactive
Cc1ncoc1C(=O)N1CCCC(C(=O)c2ccc(Oc3ccccc3)cc2)C1 (stereo not drawn) | inactive
CCCn1nnc(NC(=O)C(c2ccccc2)c2ccccc2)n1 | inactive
C=CCNc1sc(C(=O)c2ccc(Br)s2)c(N)c1C#N | inactive
CC1(C)CC(=O)C2=C(C1)Nc1ccccc1N(C(=O)C1CC1)C2c1ccco1 (stereo not drawn) | inactive
COc1ccc(NC(=O)c2ccccc2NC(=O)CSc2ccc(C)cc2)cc1 | inactive
COc1ccc(OC)c(/C(O)=C/C(=O)C(=O)Nc2cc(C)ccc2OC)c1 | inactive
O=C(c1cc(-c2ccncc2)nc2ccccc12)N1CCN(Cc2ccccc2)CC1 | inactive
COC(=O)N1C(=O)[C@](c2ccc(Cl)cc2)(C(C)C)N1C(=O)OC | inactive
COc1cc(OC)cc(C(=O)N[C@H](C(=O)Nc2ccc3c(c2)OCO3)C(C)C)c1 | inactive
CCN1CCc2c(sc(N)c2C(N)=O)C1 | inactive
COc1cccc(NC(=O)c2cc(C(=O)Nc3cccc(OC)c3)n(C)n2)c1 | inactive
CC(C)n1nc(C(=O)Nc2ccc(-n3cnnn3)cc2)c2ccccc2c1=O | inactive
CC(Cc1ccc(O)cc1)NCC(O)c1cc(O)cc(O)c1 (stereo not drawn) | inactive
CCN1CCN(c2cc(=O)n(-c3cc(Cl)ccc3C)c(=O)[nH]2)CC1 | inactive
Cc1ccc(S(=O)(=O)NC(=O)Nn2c(C)nnc2C)cc1 | inactive
COc1ccccc1C(C)NC(=O)Cc1ccsc1 (stereo not drawn) | inactive
O=C(O)c1ccc(S(=O)(=O)c2ccc3c(c2)C(=O)N(c2ccc(Br)cc2)C3=O)cc1 | inactive
O=C(Nc1nn[nH]n1)c1cc(-c2ccc(Cl)c(Cl)c2Cl)nc2ccccc12 | inactive

Structure (SMILES) | activity, higher = inhibition
O=C(Cn1ncc2c3ccccc3n(Cc3cccc(Cl)c3)c2c1=O)N1CCC2(CC1)OCCO2 | inactive
Cc1nnc(NC(=O)CSc2nnc(NC(=O)C(C)(C)C)s2)s1 | inactive
CCOc1ccc(C(C)=O)cc1COC(=O)c1cc([N+](=O)[O-])ccc1N1CCOCC1 | inactive
Cc1cccc2cc(COC(=O)c3ccco3)c(=O)[nH]c12 | inactive
CCC(=O)Nc1ccc(-c2nnc(SCc3ccc(C(=O)Nc4nccs4)cc3)n2CC)cc1 | inactive
COCCN(C(=O)COC(=O)Cc1ccc(Cl)cc1)c1c(N)n(Cc2ccccc2)c(=O)[nH]c1=O | inactive
Cc1cc(NC(=O)CSc2nc3ccccc3c(=O)n2-c2ccccc2)no1 | inactive
COc1c(Br)cc(Br)cc1/C=C1/C(=O)N=C(N)N1C | inactive
O=C(COC(=O)c1ccccc1Br)NC1CCCC1 | inactive
CC(C)OC(=O)c1cn(-c2ccccc2)nc1-c1ccc2c(c1)OCCO2 | inactive
CCCCn1c(-c2ccncc2)nc2c1c(=O)[nH]c(=O)n2CC(C)C | inactive
CC(C)(C)NC(=O)NC(=O)COc1ccccn1 | inactive
Cc1ccc2c(c1)C1CN(C)CCC1N2S(=O)(=O)c1cccc(C(F)(F)F)c1 (stereo not drawn) | inactive
O=C(NNC(=O)c1cc2ccccc2oc1=O)c1ccccc1 | inactive
CN(Cc1ccccc1)C(=O)CCC1CCN(C(=O)c2ccco2)CC1 | inactive
O=C(NC1CCCc2ccccc21)c1ccccc1Br (stereo not drawn) | inactive
CCOC(=O)c1nc(Nc2ccc(C(=O)OC)cc2)c2ccccc2n1 | inactive
COc1cc(C(=O)NCCc2cn3ccc(C)cc3n2)cc(OC)c1OC | inactive
COc1ccc(CC(=O)OCC(=O)Nc2cccc(Br)c2)cc1 | inactive
COc1ccc(CC(=O)OCC(=O)NCc2ccc(Cl)cc2)cc1 | inactive
CC(C)C(c1nnnn1CC1CCCO1)N1CCN(C2CCCC2)CC1 (stereo not drawn) | inactive
